From patent US8258081B2, “Use of C3 to C14 aliphatic aldehydes, ketones and primary and secondary C3 to C7 aliphatic alcohols to inhibit sprouting of potato tubers” (Washington State University Research Foundation, priority 2007, dated 2012)
One block for each molecule: values may come before it.

Tests used:
potato tubers [1] = test: Sprout inhibition by T2N and its metabolites, sprout fresh weight 21 days after treatment at 19° C.; assay type: in vivo; settings: for % Inhibition of sprouting: 24 h treatment
Procedure: (§1) The objective of this study was to determine the metabolites of 3-nonen-2-one (3N2) and trans-2-nonenal (T2N), which are two examples of α,β-unsaturated aldehydes and ketones that inhibit sprouting in potatoes as described in U.S. Pat. No. 6,855,669. Potato tubers were treated with 3N2 or T2N (0.75 mmol/kg tuber) for 24 h in a closed chamber. The chemicals were volatilized from filter paper inside the chamber. The tubers were removed from the treatment chamber and placed at 9° C. for up to 28 days.
The objective of this study was to determine the extent to which nonanal, 1-nonanol, and trans-2-nonene-1-ol (metabolites of T2N) inhibit sprouting of potato tubers relative to T2N. Tubers were treated separately with 0.25, 0.5 and 0.75 mmol/kg of T2N, nonanal, 1-nonanol, and trans-2-nonene-1-ol for 24 h as described in Example 1. The treated tubers were placed at 19° C. and sprout fresh weights were measured 21 days after treatment. T2N inhibited sprouting (100%) at all concentrations. Nonanal and 1-nonanol inhibited sprouting by 13 to 51%, depending on the compound and the concentration that was used.

potato tubers [2] = test: Sprout inhibition by C5 to C7 alcohols, sprout fresh weight 21 days after treatment at 18° C.; assay type: in vivo; settings: 24 h treatment
Procedure: as §1
The objective of this study was to determine the extent to which 1-heptanol, 1-hexanol, 2-heptanol, trans-2-hepten-1-ol, trans-2-hexen-1-ol and 1-pentanol (C5 to C7 alcohols) inhibit sprouting of potato tubers. Tubers were treated separately with 0.25, 0.5, 0.75 or 1 mmol/kg of each alcohol for 24 h as described in Example 1. The treated tubers were placed at 18° C. and sprout fresh weights were measured 21 days after treatment. […] C7 alcohols inhibited sprouting by about 50 to about 100%, depending on the precise treatment.

Premier Russet tubers = test: Long term sprout inhibition during storage at 9° C.; assay type: in vivo, potato; settings: 0.75 mmol/kg; for duration of sprout suppression: re-applied between second and third month
Procedure: FIG. 4. Effect of trans-2-hexen-1-ol, 2-heptanol, decanal and 3-decanone on sprouting in Premier Russet tubers during long term storage at 9° C.
The objective of this study was to determine the extent to which trans-2-hexen-1-ol, 2-heptanol, decanal, and 3-decanone inhibit sprouting during extended storage under typical commercial storage conditions. Premier Russet tubers were treated separately with 0.75 mmol/kg of each compound in 190 L plastic barrels at room temperature. Chemicals were volatilized from filter paper within the barrels which were sealed for 24 hours during application. Tubers were then stored at 9° C. and sampled monthly to determine the amount of sprouting on a per tuber basis. All treatments were re-applied between the second and third month of storage. […] 2-heptanol and decanal suppressed sprouting for 114 days (about 4 months of control). 3-decanone suppressed sprouting for 83 days.

potato tubers [3] = test: Residues and metabolites of 3N2 and T2N in treated potato tubers; settings: for persistence of metabolite residue: tubers treated with 0.75 mmol/kg parent compound, 9° C., 28 days; for metabolites formed in tubers: tubers treated with 0.75 mmol/kg for 24 h, stored at 9° C. up to 28 days
Procedure: FIG. 1. Levels of 3-nonen-2-one, 2-nonanone, and 2-nonanol in tubers initially treated with 0.75 mmol/kg 3-nonen-2-one and stored at 9° C. Content of residues in the outer 20 mm of tuber.
FIG. 2. Levels of trans-2-nonenal, nonanal, trans-2-nonen-1-ol and 1-nonanol in tubers initially treated with 0.75 mmol/kg trans-2-nonenal and stored at 9° C. Content of residues in the outer 20 mm of tuber.
as §1
Samples were taken for analysis of residues and metabolite identification over the 28-day storage period.

potato tubers [4] = test: Sprout inhibition by 3N2, 2-nonanone and 2-nonanol, sprout fresh weight 21 days after treatment at 18° C.; assay type: in vivo; settings: for % Inhibition of sprouting: 24 h treatment; for inhibition of sprout growth relative to non-treated controls: 0.5 and 0.75 mmol/kg
Procedure: as §1
Tubers were treated separately as described in Example 1 with 0, 0.25, 0.5, and 0.75 mmol/kg of 3N2,2-nonanone, and 2-nonanol. The treated tubers were placed at 18° C. and sprout fresh weights were measured 21 days after treatment.

Russet Burbank tubers = test: Sprout inhibition by mixtures of 3N2 and 2-nonanone, sprout fresh weight 21 days after treatment at 22° C.; assay type: in vivo, potato
Procedure: FIG. 3. Effects of 3-nonen-2-one (3N2) in various combinations with 2-nonanone on sprouting of Russet Burbank tubers. The compounds were applied as described in Example 1. Tubers were treated for 24 h, removed from treatment chambers, and placed at 22° C. to sprout for 3 weeks. Sprout fresh weight is expressed as a percentage of control (non-treated), which were 100% sprouted.
as §1
The objective of this study was to determine the efficacy of mixtures of 3N2 and its metabolite, 2-nonanone, on sprout inhibition. Tubers were treated as described in Example 1 with 0 to 0.75 mmol/kg of 3N2 combined factorially with 0 to 0.75 mmol/kg of 2-nonanone. The treated tubers were placed at 22° C. and sprout fresh weights were measured 21 days after treatment. […]

potatoes = settings: with two applications, table-stock and processing potatoes; cited from earlier work

Compound: CCCCCCCCCO [1-nonanol]
% Inhibition of sprouting (potato tubers [1]; 0.25 mmol/kg tubers): 28.3%
% Inhibition of sprouting (potato tubers [1]; 0.5 mmol/kg tubers): 24.5%
% Inhibition of sprouting (potato tubers [1]; 0.75 mmol/kg tubers): 50.9%

Compound: CCCCCCCO [1-heptanol]
% Inhibition of sprouting (potato tubers [2]; 0.25 mmol/kg tubers): 51.8%
% Inhibition of sprouting (potato tubers [2]; 0.50 mmol/kg tubers): 94.0%
% Inhibition of sprouting (potato tubers [2]; 0.75 mmol/kg tubers): 95.7%

Compound: CCCCCC(C)O (stereo not drawn) [2-heptanol]
% Inhibition of sprouting (potato tubers [2]; 0.25 mmol/kg tubers): 49.4%
% Inhibition of sprouting (potato tubers [2]; 0.50 mmol/kg tubers): 89.0%
% Inhibition of sprouting (potato tubers [2]; 0.75 mmol/kg tubers): 97.7%
duration of sprout suppression (Premier Russet tubers): 114 days

Compound: CCCCCCO [1-hexanol]
% Inhibition of sprouting (potato tubers [2]; 0.25 mmol/kg tubers): 36.6%
% Inhibition of sprouting (potato tubers [2]; 0.50 mmol/kg tubers): 61.3%
% Inhibition of sprouting (potato tubers [2]; 0.75 mmol/kg tubers): 71.9%

Compound: CCC/C=C/CO [trans-2-hexen-1-ol]
% Inhibition of sprouting (potato tubers [2]; 0.25 mmol/kg tubers): 96%
% Inhibition of sprouting (potato tubers [2]; 0.50 mmol/kg tubers): 100.0%
% Inhibition of sprouting (potato tubers [2]; 0.75 mmol/kg tubers): 100.0%
damage to the tuber periderm (Premier Russet tubers; after 83 days): excessive damage to the periderm
sprout control (Premier Russet tubers; up to 83 days): sprouts were effectively controlled up to this point

persistence of metabolite residue (potato tubers [3]): most persistent
Compound: CCCCCCCC(C)O (stereo not drawn) [2-nonanol]
% Inhibition of sprouting (potato tubers [4]; 0.25 mmol/kg tubers): 65.1%
% Inhibition of sprouting (potato tubers [4]; 0.5 mmol/kg tubers): 79.8%
% Inhibition of sprouting (potato tubers [4]; 0.75 mmol/kg tubers): 72.9%

Compound: CCCCCCCCC=O [nonanal]
% Inhibition of sprouting (potato tubers [1]; 0.25 mmol/kg tubers): 13.2%
% Inhibition of sprouting (potato tubers [1]; 0.5 mmol/kg tubers): 32.1%
% Inhibition of sprouting (potato tubers [1]; 0.75 mmol/kg tubers): 17.0%

Compound: CCCC/C=C/CO [trans-2-hepten-1-ol]
% Inhibition of sprouting (potato tubers [2]; 0.25 mmol/kg tubers): 91.7%
% Inhibition of sprouting (potato tubers [2]; 0.50 mmol/kg tubers): 98.7%
% Inhibition of sprouting (potato tubers [2]; 0.75 mmol/kg tubers): 99.4%

persistence of metabolite residue (potato tubers [3]): most persistent metabolite
Compound: CCCCCC/C=C/CO [trans-2-nonen-1-ol]
% Inhibition of sprouting (potato tubers [1]; 0.25 mmol/kg tubers): 8.9%
% Inhibition of sprouting (potato tubers [1]; 0.5 mmol/kg tubers): 62.8%
% Inhibition of sprouting (potato tubers [1]; 0.75 mmol/kg tubers): 31.6%

Compound: CCCCCO [1-pentanol]
% Inhibition of sprouting (potato tubers [2]; 0.25 mmol/kg tubers): 7.5%
% Inhibition of sprouting (potato tubers [2]; 0.50 mmol/kg tubers): 32.5%
% Inhibition of sprouting (potato tubers [2]; 0.75 mmol/kg tubers): 45.8%

Compound: CCCCCC/C=C/C=O [trans-2-nonenal, reference compound]
metabolites formed in tubers (potato tubers [3]): trans-2-nonen-1-ol, nonanal and 1-nonanol
% Inhibition of sprouting (potato tubers [1]; 0.25 mmol/kg tubers): 100%
% Inhibition of sprouting (potato tubers [1]; 0.5 mmol/kg tubers): 100%
% Inhibition of sprouting (potato tubers [1]; 0.75 mmol/kg tubers): 100%
inhibition of sprouting relative to untreated control (potato tubers [1]; over all concentrations (0.25, 0.5 and 0.75 mmol/kg)): 100%

Compound: CCCCCCCC(C)=O [2-nonanone]
% Inhibition of sprouting (potato tubers [4]; 0.25 mmol/kg tubers): 77.22%
% Inhibition of sprouting (potato tubers [4]; 0.5 mmol/kg tubers): 97.9%
% Inhibition of sprouting (potato tubers [4]; 0.75 mmol/kg tubers): 98.8%
inhibition of sprout growth relative to non-treated controls (potato tubers [4]): substantially inhibited sprout growth
Sprout growth (fresh weight) as % of non-treated tubers (Russet Burbank tubers; average of 0.5 and 0.75 mmol/kg 2-nonanone): 58%

metabolites formed in tubers (potato tubers [3]): 2-nonanone and 2-nonanol
Compound: CCCCCC=CC(C)=O [3-nonen-2-one, reference compound]
% Inhibition of sprouting (potato tubers [4]; 0.25 mmol/kg tubers): 99.6%
% Inhibition of sprouting (potato tubers [4]; 0.5 mmol/kg tubers): 99.9%
% Inhibition of sprouting (potato tubers [4]; 0.75 mmol/kg tubers): 99.9%
inhibition of sprout growth relative to non-treated controls (potato tubers [4]): substantially inhibited sprout growth
Sprout growth (fresh weight) as % of non-treated tubers (Russet Burbank tubers; 0.75 mmol/kg 3N2 applied alone): 9%

Compound: CCCCCCCCCC=O [decanal]
duration of sprout suppression (Premier Russet tubers): 114 days

Compound: CCCCCCCC(=O)CC [3-decanone]
duration of sprout suppression (Premier Russet tubers): 83 days

Compound: CC(C)OC(=O)Nc1cccc(Cl)c1 [CIPC, chlorpropham]
duration of sprout inhibition / extended storage life (potatoes): up to 1 year
